Values of other authors, collected in patent US11910793B2, “Multifunctional agricultural adjuvant compositions” (WINFIELD SOLUTIONS, LLC, priority 2019, dated 2024).

Conditions: water at 0° C.

Which “amount of AMS dissolvable in water” value does the source give for `N.N.O=S(=O)(O)O` [AMS, ammonium sulfate] here?
The value was 41 wt. %.
